Source: the NIST ThermoML archive (doi:10.1016/j.fluid.2005.06.011)

How the values were obtained:
[1] = refractive index (Na D-line) (dimensionless); conditions: 308.15 K; 101.33 kPa; Liquid; Standard Abbe refractometry
[2] = 308.15 K; 101.33 kPa; Liquid; Vibrating tube method
[3] = xn = mol fraction of the nth substance listed; conditions: 308.15 K, 101.3 kPa, Liquid
[4] = excess molar enthalpy (molar enthalpy of mixing); xn = mol fraction of the nth substance listed; conditions: 308.15 K, 101.3 kPa, Liquid

c1ccccc1 [benzene]
Conditions | mass density [kg/m3] | refractive index
[1] | – | 1.4921
[2] | 862.93 | –

Cc1ccccc1C [1,2-dimethylbenzene] + CCCCOC(C)=O
Conditions | excess molar enthalpy [kcal/mol] | excess molar volume [m3/mol]
[3], x2 = 0.1121 | – | -2.8e-08
[3], x2 = 0.1983 | – | -6.3e-08
[3], x2 = 0.2744 | – | -8.2e-08
[3], x2 = 0.3652 | – | -9.7e-08
[3], x2 = 0.4665 | – | -1.09e-07
[3], x2 = 0.5691 | – | -1.08e-07
[3], x2 = 0.606 | – | -1.06e-07
[3], x2 = 0.7502 | – | -9e-08
[3], x2 = 0.8041 | – | -8.3e-08
[3], x2 = 0.9032 | – | -5.6e-08
[4], x2 = 0.0707 | -0.00215 | –
[4], x2 = 0.1859 | -0.00296 | –
[4], x2 = 0.2214 | -0.00478 | –
[4], x2 = 0.3134 | -0.00621 | –
[4], x2 = 0.3539 | -0.00652 | –
[4], x2 = 0.4773 | -0.00693 | –
[4], x2 = 0.5868 | -0.00717 | –
[4], x2 = 0.6462 | -0.00696 | –
[4], x2 = 0.8002 | -0.00526 | –
[4], x2 = 0.8364 | -0.00454 | –

Cc1cccc(C)c1 [1,3-dimethylbenzene] + CCCCOC(C)=O
Conditions | excess molar enthalpy [kcal/mol] | excess molar volume [m3/mol]
[3], x2 = 0.1509 | – | -7.7e-08
[3], x2 = 0.1651 | – | -8.3e-08
[3], x2 = 0.2243 | – | -9.4e-08
[3], x2 = 0.314 | – | -1.27e-07
[3], x2 = 0.3921 | – | -1.42e-07
[3], x2 = 0.5651 | – | -1.44e-07
[3], x2 = 0.669 | – | -1.31e-07
[3], x2 = 0.8091 | – | -9.7e-08
[3], x2 = 0.8816 | – | -5.2e-08
[3], x2 = 0.9052 | – | -4.3e-08
[4], x2 = 0.1568 | 0.00237 | –
[4], x2 = 0.1886 | 0.00332 | –
[4], x2 = 0.2879 | 0.00409 | –
[4], x2 = 0.4265 | 0.00523 | –
[4], x2 = 0.4818 | 0.00528 | –
[4], x2 = 0.5375 | 0.00554 | –
[4], x2 = 0.6365 | 0.00559 | –
[4], x2 = 0.7881 | 0.00457 | –
[4], x2 = 0.8286 | 0.0043 | –
[4], x2 = 0.9169 | 0.00284 | –

Cc1ccc(C)cc1 [1,4-dimethylbenzene]
Conditions | mass density [kg/m3] | refractive index
[1] | – | 1.4879
[2] | 847.91 | –

CCCCOC(C)=O [butyl ethanoate] + Cc1ccc(C)cc1
Conditions | excess molar enthalpy [kcal/mol] | excess molar volume [m3/mol]
[3], x1 = 0.0881 | – | -8e-08
[3], x1 = 0.163 | – | -1.59e-07
[3], x1 = 0.314 | – | -2.47e-07
[3], x1 = 0.3481 | – | -2.81e-07
[3], x1 = 0.5001 | – | -3.16e-07
[3], x1 = 0.6164 | – | -3.18e-07
[3], x1 = 0.738 | – | -2.82e-07
[3], x1 = 0.7871 | – | -2.64e-07
[3], x1 = 0.8758 | – | -2.21e-07
[3], x1 = 0.9179 | – | -1.71e-07
[4], x1 = 0.0722 | -0.00356 | –
[4], x1 = 0.1892 | -0.00856 | –
[4], x1 = 0.3182 | -0.0114 | –
[4], x1 = 0.359 | -0.0122 | –
[4], x1 = 0.4828 | -0.0138 | –
[4], x1 = 0.6364 | -0.0136 | –
[4], x1 = 0.6512 | -0.0136 | –
[4], x1 = 0.7888 | -0.0107 | –
[4], x1 = 0.8394 | -0.00882 | –
[4], x1 = 0.9169 | -0.00545 | –

CCCCOC(C)=O [butyl ethanoate] + Cc1ccccc1
Conditions | excess molar enthalpy [kcal/mol] | excess molar volume [m3/mol]
[3], x1 = 0.055 | – | -1.9e-08
[3], x1 = 0.1581 | – | -6e-08
[3], x1 = 0.2744 | – | -8.2e-08
[3], x1 = 0.442 | – | -1e-07
[3], x1 = 0.5243 | – | -1.03e-07
[3], x1 = 0.6231 | – | -1.02e-07
[3], x1 = 0.7619 | – | -8.9e-08
[3], x1 = 0.849 | – | -6.9e-08
[3], x1 = 0.9052 | – | -5.1e-08
[4], x1 = 0.152 | -0.00698 | –
[4], x1 = 0.1873 | -0.0086 | –
[4], x1 = 0.2873 | -0.012 | –
[4], x1 = 0.3922 | -0.0136 | –
[4], x1 = 0.4465 | -0.0143 | –
[4], x1 = 0.502 | -0.0148 | –
[4], x1 = 0.543 | -0.0151 | –
[4], x1 = 0.6 | -0.0148 | –
[4], x1 = 0.7435 | -0.0124 | –
[4], x1 = 0.8705 | -0.0086 | –
[4], x1 = 0.8898 | -0.00765 | –

C1CCCCC1 [cyclohexane]
Conditions | mass density [kg/m3] | refractive index
[1] | – | 1.4205
[2] | 764.43 | –

Cc1ccccc1C [1,2-dimethylbenzene]
Conditions | mass density [kg/m3] | refractive index
[1] | – | 1.5031
[2] | 867.41 | –

Cc1cccc(C)c1 [1,3-dimethylbenzene]
Conditions | mass density [kg/m3] | refractive index
[1] | – | 1.4946
[2] | 851.53 | –

Cc1ccccc1 [toluene]
Conditions | mass density [kg/m3] | refractive index
[1] | – | 1.4885
[2] | 852.8 | –

CCCCOC(C)=O [butyl ethanoate]
Conditions | mass density [kg/m3] | refractive index
[1] | – | 1.3908
[2] | 865.45 | –

CCCCOC(C)=O [butyl ethanoate] + c1ccccc1
Conditions | excess molar enthalpy [kcal/mol] | excess molar volume [m3/mol]
[3], x1 = 0.0901 | – | 4.2e-08
[3], x1 = 0.2214 | – | 7e-08
[3], x1 = 0.3662 | – | 7.6e-08
[3], x1 = 0.4623 | – | 6.9e-08
[3], x1 = 0.543 | – | 6e-08
[3], x1 = 0.6504 | – | 4.4e-08
[3], x1 = 0.7052 | – | 3.6e-08
[3], x1 = 0.7601 | – | 2.8e-08
[3], x1 = 0.8505 | – | 1.7e-08
[3], x1 = 0.937 | – | 6e-09
[4], x1 = 0.1269 | -0.00179 | –
[4], x1 = 0.2523 | -0.00335 | –
[4], x1 = 0.4029 | -0.005 | –
[4], x1 = 0.4575 | -0.00543 | –
[4], x1 = 0.4958 | -0.00586 | –
[4], x1 = 0.5619 | -0.00631 | –
[4], x1 = 0.6599 | -0.00655 | –
[4], x1 = 0.7279 | -0.00621 | –
[4], x1 = 0.7714 | -0.00586 | –
[4], x1 = 0.8714 | -0.00488 | –

CCCCOC(C)=O [butyl ethanoate] + C1CCCCC1
Conditions | excess molar enthalpy [kcal/mol] | excess molar volume [m3/mol]
[3], x1 = 0.1062 | – | 3.47e-07
[3], x1 = 0.1575 | – | 4.35e-07
[3], x1 = 0.223 | – | 5.21e-07
[3], x1 = 0.3004 | – | 6.04e-07
[3], x1 = 0.4851 | – | 6.74e-07
[3], x1 = 0.4863 | – | 6.85e-07
[3], x1 = 0.5412 | – | 6.54e-07
[3], x1 = 0.6489 | – | 6.07e-07
[3], x1 = 0.735 | – | 4.98e-07
[3], x1 = 0.7661 | – | 4.06e-07
[3], x1 = 0.8854 | – | 1.95e-07
[4], x1 = 0.1409 | 0.195 | –
[4], x1 = 0.1975 | 0.256 | –
[4], x1 = 0.2672 | 0.307 | –
[4], x1 = 0.3389 | 0.333 | –
[4], x1 = 0.4035 | 0.331 | –
[4], x1 = 0.4961 | 0.3 | –
[4], x1 = 0.5517 | 0.268 | –
[4], x1 = 0.6466 | 0.205 | –
[4], x1 = 0.7965 | 0.112 | –
[4], x1 = 0.8311 | 0.0947 | –
[4], x1 = 0.9061 | 0.0565 | –
